# Measurements from PMC4928072, “Dietary apigenin potentiates the inhibitory effect of interferon-α on cancer cell viability through inhibition of 26S proteasome-mediated interferon receptor degradation” (Food & Nutrition Research, 2016).
# Tests used:
# Format in all cases: biochemical
# [1] = biological target: T1, 26S proteasome, β2 subunit (trypsin-like activity) (Homo sapiens, UniProt Q99436); experiment: fluorogenic peptidase assay of purified human 26S proteasome with Ac-Arg-Leu-Arg-AMC
# T1 construct: gene PSMB7; purified human 26S proteasome; with other subunits of the 26S proteasome
# T1 sequence (Q99436 44-277): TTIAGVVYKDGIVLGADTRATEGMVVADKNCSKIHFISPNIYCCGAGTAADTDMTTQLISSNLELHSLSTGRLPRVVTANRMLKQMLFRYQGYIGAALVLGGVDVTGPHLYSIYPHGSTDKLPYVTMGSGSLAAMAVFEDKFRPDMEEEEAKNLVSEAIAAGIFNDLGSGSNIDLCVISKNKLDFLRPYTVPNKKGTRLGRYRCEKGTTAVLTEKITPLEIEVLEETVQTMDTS
# [2] = biological target: T2, 26S proteasome, β1 subunit (caspase-like activity) (Homo sapiens, UniProt P28072); experiment: peptidase assay of purified human 26S proteasome with Z-Nle-Pro-Nle-Asp-aminoluciferin
# T2 construct: gene PSMB6; purified human 26S proteasome; with other subunits of the 26S proteasome
# T2 sequence (P28072 35-239): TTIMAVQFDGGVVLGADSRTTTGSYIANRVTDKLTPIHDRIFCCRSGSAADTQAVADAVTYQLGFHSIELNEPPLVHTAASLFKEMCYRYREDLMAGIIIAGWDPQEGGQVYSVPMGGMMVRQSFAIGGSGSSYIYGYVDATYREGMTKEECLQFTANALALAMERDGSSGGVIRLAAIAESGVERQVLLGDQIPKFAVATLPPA
# [3] = biological target: T3, 26S proteasome, β5 subunit (chymotrypsin-like activity) (Homo sapiens, UniProt P28074); experiment: fluorogenic peptidase assay of purified human 26S proteasome with Suc-Leu-Leu-Val-Tyr-AMC
# T3 construct: gene PSMB5; purified human 26S proteasome; with other subunits of the 26S proteasome
# T3 sequence (P28074 60-263): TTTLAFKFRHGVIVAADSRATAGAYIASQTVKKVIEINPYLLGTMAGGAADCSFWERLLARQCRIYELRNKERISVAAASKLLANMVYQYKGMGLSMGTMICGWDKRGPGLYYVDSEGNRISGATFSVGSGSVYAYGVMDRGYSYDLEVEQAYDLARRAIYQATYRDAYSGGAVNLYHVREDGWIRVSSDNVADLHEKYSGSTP
smiles,measurement,setting,value
O=c1cc(-c2ccc(O)cc2)oc2cc(O)cc(O)c12 [apigenin],IC50,[1],20 µM
same,IC50,[2],1.5 µM
same,IC50,[3],11.5 µM
